Assay [1] has as its system H3K27me3 mark in Hela cells expressing wild type EZH2. Description: H3K27me3 Alpha Hela Assay (AlphaLISA). Format: cell-based. The following applies: Homo sapiens, 72 hrs, read-out: H3K27me3_Alpha_HeLa (EC50). The protocol: H3K27me3 Alpha Hela Assay (AlphaLISA). Ten different doses of each test compound (in a series of 3-fold dilutions) were plated in duplicate 384-well tissue culture treated plates (Catalog #781080; Greiner Bio One; Monroe, N.C.). Hela cells grown in culture were trypsinized and counted using a Countess® cell counter (Catalog # C10281; Life Technologies, Grand Island, N.Y.). Cell were diluted to 67,000 cells per mL in 10% DMEM (Catalog #10569-010 Life Technologies, Grand Island, N.Y.) and 15 μL (1,000 cells) were plated into each well using the Biotek MicroFlo™ Select Dispenser (BioTek Instruments, Inc. Vermont, USA),) of the 384-well plate. Plates were incubated at 37° C./5% CO2 for 72 hrs. One of the duplicate plates was processed for HeLa assay and the other for viability.
To the plate processed for AlphaLISA was added 5 μL per well Cell-Histone Lysis buffer (1×) (Catalog # AL009F1 Perkin Elmer; Waltham, Mass.) and the plate was incubated at RT for 30 minutes on a plate shaker with low speed (Model#4625-Q Thermo Scientific; Waltham, Mass.). Then, 10 μL per well Histone Extraction buffer (catalog # AL009F2; Perkin Elmer; Waltham, Mass.) was added and the plate further incubated at RT for 20 min on plate shaker with low speed. To each well was then added 10 μL per well of a 5× mix of anti-K27me3 acceptor beads plus Biotinylated anti-Histone H3 (C-ter) Antibody (diluted to 3 nM final) (Catalog #AL118 Perkin Elmer; Waltham, Mass.). Dilution of the acceptor beads and then anti-Histone H3 was with 1× Histone Detection buffer (Catalog # AL009F3 Perkin Elmer; Waltham, Mass.) which was produced diluted from the 10× stock provided. The plate was sealed with an aluminum plate sealer and incubated at 23° C. for 60 min. We then added 10 μL 5× solution of Streptavidin Donor beads (Catalog #6760002 Perkin Elmer; Waltham, Mass.) (20 μg/mL final in 1× Histone Detection Buffer), sealed the plate with Aluminum plate sealer and incubated at 23° C. for 30 min. The plates were then read using an EnVision-Alpha Reader (model #2104 Perkin Elmer; Waltham, Mass.).
Data from both assays was analyzed using Assay Assistant (Constellation Pharmaceuticals In-house product) and Activity Base (IDBS Ltd, Surrey, UK) template. Data files were imported to Assay Assistant and assay conditions were specified. A unique Analysis ID was created and the data files exported to Activity Base. An analysis template was created on Activity Base to measure dose-dependent inhibition of H3K27me3 mark and cell viability respectively. Readout of DMSO wells were used to normalize the data. Resulting curves were fitted using Activity base software Model 205 (IDBS Ltd, Surrey, UK). The data was checked for quality, validated and integrated in excel format using SARview (IDBS Ltd, Surrey, UK).
In general terms: Bead proximity is the source of the signal in Alpha formats.

Another assay addresses EZH2 (Homo sapiens, UniProt Q15910). Description: EZH2 Assay (3H SAM methyl transfer, rPRC2, FlashPlate). Format: biochemical. The following applies: rPRC2, biotinylated oligonucleosomes, 0.2 μM 3H SAM, 2 nM EZH2. The protocol:
(§1) EZH2 Assay: Assays were carried out by mixing rPRC2 together with biotinylated oligonucleosome substrates in the presence of the radio-labeled enzyme co-factor, S-adenosyl-L-methionine (^3H SAM) (Perkin Elmer) and monitoring the enzymatically mediated transfer of tritiated methyl groups from ^3H SAM to histone lysine residues. The amount of resulting tritiated methyl histone product was measured by first capturing the biotinylated oligonucleosomes in streptavidin (SAV) coated FlashPlates (Perkin Elmer), followed by a wash step to remove unreacted ^3H SAM, and then counting on a TopCount NXT 384 well plate scintillation counter (Perkin Elmer). The final assay conditions for EZH2 were as follows: 50 mM Tris Buffer pH 8.5, 1 mM DTT, 69 μM Brij-35 detergent, 5.0 mM MgCl2, 0.1 mg/mL BSA, 0.2 μM ^3H SAM, 0.2 μM biotinylated oligonucleosomes, 3.6 μM H3K27me3 peptide and 2 nM EZH2.
(§2) Compound IC50 measurements were obtained as follows: Compounds were first dissolved in 100% DMSO as 10 mM stock solutions. Ten point dose response curves were generated by dispensing varying amounts of the 10 mM compound solution in 10 wells of the 384 well plate (Echo; Labcyte), pure DMSO was then used to backfill the wells to insure all wells have the same amount of DMSO. A 12.5 μL volume of the HMT enzyme, H3K27me3 peptide and oligonucleosome substrate in assay buffer was added to each well of the assay plate using a Multidrop Combi (ThermoFisher). Compounds were pre-incubated with the enzyme for 20 min, followed by initiation of the methyltransferase reaction by addition of 12.5 μL of ^3H SAM in assay buffer (final volume=25 μL). The final concentrations of compounds ranged from a top default concentration of 80 μM down to 0.16 μM in ten 2-fold dilution steps. Reactions were carried out for 60 minutes and quenched with 20 μL per well of 1.96 mM SAH, 50 mM Tris pH 8.5, 200 mM EDTA. Stopped reactions were transferred to SAV coated Flashplates (Perkin Elmer), incubated for 120 min, washed with a plate washer, and then read on the TopCount NXT (1.0 min/well) to measure the amount of methyl histone product formed during the reaction. The amount of methyl histone product was compared with the amount of product formed in the 0% and 100% inhibition control wells allowing the calculation of % Inhibition in the presence of the individual compounds at various concentrations. IC50's were computed using a 4 parameter fit non-linear curve fitting software package (XLFIT, part of the database package, ActivityBase (IDBS)) where the four parameters were IC50, Hill slope, pre-transitional baseline (0% INH), and post-transitional baseline (100% INH); with the latter two parameters being fixed to zero and 100%, respectively, by default.

A further assay concerns the target Y641N EZH2 (Homo sapiens, UniProt Q15910, Y641N). Put plainly: Assay for Y641N EZH2 (as the EZH2 assay, H3K27Me2 oligonucleosomes as substrate). Format: biochemical. The conditions noted are these: Y641N EZH2 mutant, reconstituted H3K27Me2 oligonucleosomes as substrate. The method, then:
as §1, §2
Assay for Y641N EZH2 was performed as above using reconstituted H3K27Me2 oligonucleosomes as substrate.

Structures are written as SMILES. Where only a bound is given, the exact number is not on record here.

EZH2, sequence (Q15910 whole entry): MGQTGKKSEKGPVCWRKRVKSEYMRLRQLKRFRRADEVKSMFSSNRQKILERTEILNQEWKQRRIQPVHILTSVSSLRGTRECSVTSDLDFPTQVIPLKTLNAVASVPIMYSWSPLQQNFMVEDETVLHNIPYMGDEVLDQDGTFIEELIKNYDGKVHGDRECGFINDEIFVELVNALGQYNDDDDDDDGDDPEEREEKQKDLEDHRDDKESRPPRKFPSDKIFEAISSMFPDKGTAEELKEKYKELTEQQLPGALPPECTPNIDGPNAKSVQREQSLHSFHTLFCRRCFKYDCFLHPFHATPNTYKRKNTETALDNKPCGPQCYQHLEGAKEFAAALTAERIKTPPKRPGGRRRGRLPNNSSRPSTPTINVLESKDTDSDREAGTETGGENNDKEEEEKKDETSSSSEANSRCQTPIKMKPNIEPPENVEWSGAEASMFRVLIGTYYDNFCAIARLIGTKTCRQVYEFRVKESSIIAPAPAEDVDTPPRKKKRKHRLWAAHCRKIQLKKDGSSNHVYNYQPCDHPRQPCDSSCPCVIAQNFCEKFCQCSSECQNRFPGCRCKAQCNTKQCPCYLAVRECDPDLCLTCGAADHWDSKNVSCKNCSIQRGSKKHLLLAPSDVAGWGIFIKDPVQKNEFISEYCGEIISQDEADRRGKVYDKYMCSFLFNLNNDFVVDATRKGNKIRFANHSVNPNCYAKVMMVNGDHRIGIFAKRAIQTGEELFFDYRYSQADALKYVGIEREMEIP
EZH2, sequence (O75530 whole entry partner): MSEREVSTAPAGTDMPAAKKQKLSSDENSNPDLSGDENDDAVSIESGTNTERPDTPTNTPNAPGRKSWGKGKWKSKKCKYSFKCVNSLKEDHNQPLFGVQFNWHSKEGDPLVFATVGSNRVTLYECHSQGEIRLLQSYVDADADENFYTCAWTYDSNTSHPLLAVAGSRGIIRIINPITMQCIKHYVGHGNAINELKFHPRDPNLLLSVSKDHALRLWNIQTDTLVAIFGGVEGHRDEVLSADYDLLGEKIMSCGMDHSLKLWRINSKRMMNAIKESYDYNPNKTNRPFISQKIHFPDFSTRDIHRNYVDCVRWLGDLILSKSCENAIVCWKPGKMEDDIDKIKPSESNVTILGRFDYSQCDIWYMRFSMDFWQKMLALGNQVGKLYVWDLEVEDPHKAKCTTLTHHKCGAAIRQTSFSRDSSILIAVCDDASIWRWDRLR
EZH2, sequence (Q15022 whole entry partner): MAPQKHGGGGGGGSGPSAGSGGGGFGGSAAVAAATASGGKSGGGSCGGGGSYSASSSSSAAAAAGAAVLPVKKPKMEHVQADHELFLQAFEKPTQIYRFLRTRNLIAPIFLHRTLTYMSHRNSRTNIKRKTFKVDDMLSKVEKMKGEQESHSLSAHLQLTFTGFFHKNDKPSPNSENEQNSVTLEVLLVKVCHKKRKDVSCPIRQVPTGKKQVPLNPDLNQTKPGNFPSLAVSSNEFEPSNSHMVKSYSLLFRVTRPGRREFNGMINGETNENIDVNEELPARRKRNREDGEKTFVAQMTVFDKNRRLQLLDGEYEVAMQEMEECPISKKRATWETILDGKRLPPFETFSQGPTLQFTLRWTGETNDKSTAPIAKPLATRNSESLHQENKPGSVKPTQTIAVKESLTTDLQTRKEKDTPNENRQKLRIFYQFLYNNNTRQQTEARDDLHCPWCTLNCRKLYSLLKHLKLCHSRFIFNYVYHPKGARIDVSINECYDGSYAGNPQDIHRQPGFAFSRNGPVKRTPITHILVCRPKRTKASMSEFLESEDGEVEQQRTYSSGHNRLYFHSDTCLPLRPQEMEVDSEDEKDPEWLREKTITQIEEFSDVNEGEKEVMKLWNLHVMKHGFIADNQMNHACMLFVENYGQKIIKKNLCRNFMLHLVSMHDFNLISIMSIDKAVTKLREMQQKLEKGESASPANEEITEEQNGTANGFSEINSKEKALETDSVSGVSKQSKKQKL
Y641N EZH2, sequence (Q15910 whole entry Y641N): as the sequence (Q15910 whole entry) above, with Y641N counted along it
Y641N EZH2, sequence (O75530 whole entry partner): as the sequence (O75530 whole entry partner) above
Y641N EZH2, sequence (Q15022 whole entry partner): as the sequence (Q15022 whole entry partner) above

As a reminder, the EC50 is the concentration at which the effect is half-maximal. Broadly, the IC50 is the point on the concentration scale where inhibition reaches its midpoint. A lower IC50 goes with higher potency. Turning to `COc1cc(C)[nH]c(=O)c1CNC(=O)c1c(C)c(C(C)C2CCN(C(=O)CC(F)(F)F)CC2)n2ncccc12` (stereo not shown) [Compound 137, N-((4-methoxy-6-methyl-2-oxo-1,2-dihydropyridin-3-yl)methyl)-6-methyl-7-(1-(1-(3,3,3-trifluoropropanoyl)piperidin-4-yl)ethyl)pyrrolo[1,2-b]pyridazine-5-carboxamide], the EC50 in assay [1] is below 400 nM. Moreover, the IC50 on EZH2 is below 100 nM.
As for `Cc1cc(C)c(CNC(=O)c2c(C)c(C(C)C3CCN(CC(C)(C)O)CC3)n3ncccc23)c(=O)[nH]1` (stereo not shown) [Compound 128, N-((4,6-dimethyl-2-oxo-1,2-dihydropyridin-3-yl)methyl)-7-(1-(1-(2-hydroxy-2-methylpropyl)piperidin-4-yl)ethyl)-6-methylpyrrolo[1,2-b]pyridazine-5-carboxamide], the EC50 in assay [1] was below 400 nM. The IC50 against EZH2 was below 100 nM.
For the compound `COc1cc(C)[nH]c(=O)c1CNC(=O)c1c(C)c(C(C)C2CCN(CC(C)(C)F)CC2)n2ncccc12` (stereo not shown) [Compound 144, 7-(1-(1-(2-fluoro-2-methylpropyl)piperidin-4-yl)ethyl)-N-((4-methoxy-6-methyl-2-oxo-1,2-dihydropyridin-3-yl)methyl)-6-methylpyrrolo[1,2-b]pyridazine-5-carboxamide], the IC50 is 100 to 1000 nM against Y641N EZH2 and below 100 nM at EZH2. Also, the EC50 in assay [1] is below 400 nM.
For `COc1cc(C)[nH]c(=O)c1CNC(=O)c1c(C)c(C(C)C2CCN(C(=O)C(C)(F)F)CC2)n2ncccc12` (stereo not shown) [Compound 135, 7-(1-(1-(2,2-difluoropropanoyl)piperidin-4-yl)ethyl)-N-((4-methoxy-6-methyl-2-oxo-1,2-dihydropyridin-3-yl)methyl)-6-methylpyrrolo[1,2-b]pyridazine-5-carboxamide] the same measures were 1000 to 10000 nM, below 100 nM and below 400 nM.
`COc1cc(C)[nH]c(=O)c1CNC(=O)c1c(C)c(C(C)C2CCN(CC(C)(F)F)CC2)n2ncccc12` (stereo not shown) [Compound 143, 7-(1-(1-(2,2-difluoropropyl)piperidin-4-yl)ethyl)-N-((4-methoxy-6-methyl-2-oxo-1,2-dihydropyridin-3-yl)methyl)-6-methylpyrrolo[1,2-b]pyridazine-5-carboxamide]: the EC50 in assay [1] is below 400 nM. The IC50 on EZH2 was below 100 nM.
Regarding `COc1cc(C)[nH]c(=O)c1CNC(=O)c1c(C)c(C(C)C2CCN(C(=O)C(F)(F)F)CC2)n2ncccc12` (stereo not shown) [Compound 139, N-((4-methoxy-6-methyl-2-oxo-1,2-dihydropyridin-3-yl)methyl)-6-methyl-7-(1-(1-(2,2,2-trifluoroacetyl)piperidin-4-yl)ethyl)pyrrolo[1,2-b]pyridazine-5-carboxamide], the IC50 against Y641N EZH2 and on EZH2 was below 100 nM in each case. In addition, the EC50 in assay [1] was below 400 nM.
For `Cc1ccc2c(C(=O)NCc3c(C)cc(C)[nH]c3=O)c(C)c(C(C)C3CCN(CC(C)(C)O)CC3)n2n1` (stereo not shown) [Compound 129, N-((4,6-dimethyl-2-oxo-1,2-dihydropyridin-3-yl)methyl)-7-(1-(1-(2-hydroxy-2-methylpropyl)piperidin-4-yl)ethyl)-2,6-dimethylpyrrolo[1,2-b]pyridazine-5-carboxamide], the EC50 in assay [1] lay in the range of 400 to 2000 nM. The same compound came in with an IC50 on EZH2 below 100 nM.
For `COc1cc(C)[nH]c(=O)c1CNC(=O)c1c(C)c(C(C)C2CCN(CCC(F)(F)F)CC2)n2ncccc12` (stereo not shown) [Compound 134, N-((4-methoxy-6-methyl-2-oxo-1,2-dihydropyridin-3-yl)methyl)-6-methyl-7-(1-(1-(3,3,3-trifluoropropyl)piperidin-4-yl)ethyl)pyrrolo[1,2-b]pyridazine-5-carboxamide], the EC50 in assay [1] was 400 to 2000 nM. Also, on EZH2, the IC50 was below 100 nM.
Consider `COc1cc(C)[nH]c(=O)c1CNC(=O)c1c(Cl)c(C(C)C2CCN(CC(C)(C)O)CC2)n2ncccc12` (stereo not shown) [Compound 142, 6-chloro-7-(1-(1-(2-hydroxy-2-methylpropyl)piperidin-4-yl)ethyl)-N-((4-methoxy-6-methyl-2-oxo-1,2-dihydropyridin-3-yl)methyl)pyrrolo[1,2-b]pyridazine-5-carboxamide], for which the IC50 at Y641N EZH2 and on EZH2 was below 100 nM throughout. Also, the EC50 in assay [1] was below 400 nM.
Turning to `COc1cc(C)[nH]c(=O)c1CNC(=O)c1c(C)c(C(C)C2CCN(CC(F)(F)F)CC2)n2ncccc12` (stereo not shown) [Compound 133, N-((4-methoxy-6-methyl-2-oxo-1,2-dihydropyridin-3-yl)methyl)-6-methyl-7-(1-(1-(2,2,2-trifluoroethyl)piperidin-4-yl)ethyl)pyrrolo[1,2-b]pyridazine-5-carboxamide], the IC50 on Y641N EZH2 and against EZH2 was below 100 nM throughout. Also, the 50% effective concentration (EC50) in assay [1] was below 400 nM.
Regarding `COc1cc(C)[nH]c(=O)c1CNC(=O)c1c(C)c(C(C)C2CCN(C(=O)C(C)(C)F)CC2)n2ncccc12` (stereo not shown) [Compound 136, 7-(1-(1-(2-fluoro-2-methylpropanoyl)piperidin-4-yl)ethyl)-N-((4-methoxy-6-methyl-2-oxo-1,2-dihydropyridin-3-yl)methyl)-6-methylpyrrolo[1,2-b]pyridazine-5-carboxamide], in assay [1], the EC50 was below 400 nM. The IC50 on EZH2 is below 100 nM.
On to `COc1cc(C)[nH]c(=O)c1CNC(=O)c1c(Cl)c(C(C)C2CCOCC2)n2ncccc12` (stereo not shown) [Compound 132, 6-chloro-N-((4-methoxy-6-methyl-2-oxo-1,2-dihydropyridin-3-yl)methyl)-7-(1-(tetrahydro-2H-pyran-4-yl)ethyl)pyrrolo[1,2-b]pyridazine-5-carboxamide], for which the EC50 in assay [1] is below 400 nM. The IC50 against EZH2 was below 100 nM.
Turning to `COc1cc(C)[nH]c(=O)c1CNC(=O)c1c(C)c(C(C)N(C)C)n2ncccc12` (stereo not shown) [Compound 130, 7-(1-(dimethylamino)ethyl)-N-((4-methoxy-6-methyl-2-oxo-1,2-dihydropyridin-3-yl)methyl)-6-methylpyrrolo[1,2-b]pyridazine-5-carboxamide], the EC50 in assay [1] lay in the range of 2000 to 10000 nM. On EZH2, this compound showed an IC50 below 100 nM.
